Source: patent publication US4393228A, “Epoxysuccinic acid derivatives” (Taisho Pharmaceutical Co., Ltd., priority 1977, dated 1983)

These compounds were tested against T1, papain (Carica papaya, UniProt P00784) (assay: Papain inhibitory activity (milk casein digestion)). Conditions: papain 80 μg/ml 0.5 ml, cysteine, pH 6.8, 1% milk casein, 40° C., 10 minutes.
T1 construct: purchased Sigma Chem. Co
T1 sequence (P00784 134-345): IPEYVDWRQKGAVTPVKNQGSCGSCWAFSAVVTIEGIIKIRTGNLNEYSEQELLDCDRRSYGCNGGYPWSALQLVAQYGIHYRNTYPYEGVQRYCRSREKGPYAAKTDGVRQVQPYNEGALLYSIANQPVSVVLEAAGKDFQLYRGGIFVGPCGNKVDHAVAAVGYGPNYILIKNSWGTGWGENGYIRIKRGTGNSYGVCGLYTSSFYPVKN
Assay type: biochemical
Method: Papain inhibitory activity of the compounds of this invention was assayed as follows: To 0.5 ml of a solution of papain (80 μg/ml, Sigma Chem. Co., 2x cry.), were added 0.25 ml of 40 mM cysteine dissolved in 20 mM disodium ethylenediamine tetraacetic acid solution adjusted pH to 6.8 with sodium hydroxide and 0.25 ml of 33 mM phosphate buffer (pH 6.8) with or without inhibitor. After incubation at 40° C. for 15 minutes, the resulting mixture was added to 5 ml of 1% milk casein solution in the same buffer as described above, and further incubated at 40° C. for 10 minutes. Then the mixture was mixed with 5 ml of 0.44 M trichloroacetic acid solution and followed by filtration with a sheet of Toyo filter paper No. 4. The extinction of the filtrate was read at 280 nm. The percent inhibition was calculated from the formula, 100 x (B-A)/B; wherein B stands for the absorbance without inhibitor and A for the absorbance with inhibitor. The compound Nos. in Table 1 are as defined in Examples as described hereinafter.
With `C[C@H]1CCCC[C@H]1OC(=O)[C@@H]1O[C@H]1C(=O)O[C@@H]1CCCC[C@@H]1C` (relative stereo) [EP-3, di-2'-cis-methylcyclohexyl epoxysuccinate] the “ID50 (amount of inhibitor for 50% inhibition)” value was 2.12 γ. In the case of `CC(OC(=O)C1OC1C(=O)N[C@@H](CCCCN)C(=O)OCc1ccccc1)C1CCCC1` (stereo partly drawn) [EP-206, N-[3-(1'-cyclopentylethoxy)-carbonyloxirane-2-carbonyl]-L-lysine benzyl ester], the “ID50 (amount of inhibitor for 50% inhibition)” value is reported as 0.12 γ. With `CCCOC(=O)[C@H]1O[C@@H]1C(=O)O` (relative stereo) [EP-138, n-propyl potassium epoxysuccinate] the “ID50 (amount of inhibitor for 50% inhibition)” value was 0.82 γ. `O=C(OCc1ccc(Br)cc1)[C@@H]1O[C@H]1C(=O)OCc1ccc(Br)cc1` (relative stereo) [EP-113, di-p-bromobenzyl epoxysuccinate] was tested, and the “ID50 (amount of inhibitor for 50% inhibition)” value was 0.99 γ. `O=C(O)[C@H]1O[C@@H]1C(=O)OCc1cccc(F)c1` (relative stereo) [EP-122, m-fluorobenzyl potassium epoxysuccinate] was tested, and the “ID50 (amount of inhibitor for 50% inhibition)” value was 0.10 γ. For `Cc1cc(C)cc(COC(=O)[C@@H]2O[C@H]2C(=O)OCc2cc(C)cc(C)c2)c1` (relative stereo) [EP-93, di-3',5'-dimethylbenzyl epoxysuccinate], the “ID50 (amount of inhibitor for 50% inhibition)” value was 4.31 γ. With `CCCCOC(=O)[C@H]1O[C@@H]1C(=O)O` (relative stereo) [EP-142, n-butyl potassium epoxysuccinate] the “ID50 (amount of inhibitor for 50% inhibition)” value was 0.29 γ. In the case of `Cc1cccc2c(COC(=O)[C@@H]3O[C@H]3C(=O)O)ccc(C)c12` (relative stereo) [EP-88, 4',5'-dimethyl-1'-naphthylmethyl potassium epoxysuccinate], the “ID50 (amount of inhibitor for 50% inhibition)” value is reported as 0.32 γ. In the case of `O=C(N[C@@H](CSCc1ccccc1)C(=O)OCc1ccccc1)C1OC1C(=O)OCc1ccccc1` (stereo partly drawn) [EP-191, N-(3-benzyloxycarbonyloxirane-2-carbonyl)-S-benzyl-L-cysteine benzyl ester], the “ID50 (amount of inhibitor for 50% inhibition)” value is reported as 5.51 γ. `O=C(OCc1ccc(Cl)cc1)[C@@H]1O[C@H]1C(=O)OCc1ccc(Cl)cc1` (relative stereo) [EP-115, di-p-chlorobenzyl epoxysuccinate] was tested, and the “ID50 (amount of inhibitor for 50% inhibition)” value was 1.20 γ. For `CCOC(=O)C1OC1C(=O)N[C@@H](CCSC)C(=O)OC` (stereo partly drawn) [EP-155, N-(3-ethoxycarbonyloxirane-2-carbonyl)-L-methionine methyl ester], the “ID50 (amount of inhibitor for 50% inhibition)” value was 9.20 γ. `O=C(CNC(=O)[C@@H]1O[C@H]1C(=O)OCCC1CCCCC1)OCc1ccccc1` (relative stereo) [EP-207, N-[3-(2'-cyclohexylethoxy)-carbonyloxirane-2-carbonyl]-glycine benzyl ester] was tested, and the “ID50 (amount of inhibitor for 50% inhibition)” value was 6.52 γ. `Cc1ccccc1COC(=O)[C@@H]1O[C@H]1C(=O)O` (relative stereo) [EP-92, o-methylbenzyl potassium epoxysuccinate] was tested, and the “ID50 (amount of inhibitor for 50% inhibition)” value was 0.10 γ. For `O=C(O)[C@@H]1O[C@H]1C(=O)OCc1cccc2c(Br)cccc12` (relative stereo) [EP-86, 5'-bromo-1'-naphthylmethyl potassium epoxysuccinate], the “ID50 (amount of inhibitor for 50% inhibition)” value was 0.27 γ. In the case of `O=C(OCCc1ccccc1)[C@H]1O[C@@H]1C(=O)OCCc1ccccc1` (relative stereo) [EP-129, di-2'-phenylethyl epoxysuccinate], the “ID50 (amount of inhibitor for 50% inhibition)” value is reported as 0.78 γ. For `CC1(C)C2CCC1(C)C(OC(=O)C1OC1C(=O)O)C2` (stereo not drawn) [EP-54, bornyl potassium epoxysuccinate], the “ID50 (amount of inhibitor for 50% inhibition)” value was 0.09 γ. For `CC(C)[C@H](NC(=O)C1OC1C(=O)OCc1ccc(Br)cc1)C(=O)OCc1ccccc1` (stereo partly drawn) [EP-162, N-(3-p-bromobenzyloxycarbonyloxirane-2-carbonyl)-L-valine benzyl ester], the “ID50 (amount of inhibitor for 50% inhibition)” value was 0.80 γ. `Cc1cccc(COC(=O)[C@@H]2O[C@H]2C(=O)O)c1Br` (relative stereo) [EP-98, 2'-bromo-3'-methylbenzyl potassium epoxysuccinate] was tested, and the “ID50 (amount of inhibitor for 50% inhibition)” value was 0.32 γ. In the case of `O=C(OCCCCC1CCCCC1)[C@@H]1O[C@H]1C(=O)OCCCCC1CCCCC1` (relative stereo) [EP-67, di-4-cyclohexanebutyl epoxysuccinate], the “ID50 (amount of inhibitor for 50% inhibition)” value is reported as 93.28 γ. For `C[C@@H]1CCCC[C@H]1OC(=O)[C@@H]1O[C@H]1C(=O)O[C@@H]1CCCC[C@H]1C` (relative stereo) [EP-5, di-2'-trans-methylcyclohexyl epoxysuccinate], the “ID50 (amount of inhibitor for 50% inhibition)” value was 2.36 γ. With `CCOC(=O)[C@H](CC(C)C)NC(=O)C1OC1C(=O)OCCCC1CCCC1` (stereo partly drawn) [EP-203, N-[3-(3'-cyclopentylpropyloxy)carbonyloxirane-2-carbonyl]-L-leucine ethyl ester] the “ID50 (amount of inhibitor for 50% inhibition)” value was 0.12 γ. In the case of `O=C(O)[C@H]1O[C@@H]1C(=O)OCc1ccccc1I` (relative stereo) [EP-106, o-iodobenzyl potassium epoxysuccinate], the “ID50 (amount of inhibitor for 50% inhibition)” value is reported as 0.14 γ. With `CCOC(=O)C1OC1C(=O)N[C@@H](C)C(=O)OC(C)(C)C` (stereo partly drawn) [EP-192, N-(3-ethoxycarbonyloxirane-2-carbonyl)-L-alanine-t-butyl ester] the “ID50 (amount of inhibitor for 50% inhibition)” value was 40.50 γ. `O=C(O)[C@@H]1O[C@H]1C(=O)OC1CC2CCC1CC2` (relative stereo) [EP-52, bicyclo [2,2,2] octyl potassium epoxysuccinate] was tested, and the “ID50 (amount of inhibitor for 50% inhibition)” value was 0.07 γ. For `CC(OC(=O)C1OC1C(=O)O)C1CCCC1` (stereo not drawn) [EP-46, 1-cyclopentaneethyl potassium epoxysuccinate], the “ID50 (amount of inhibitor for 50% inhibition)” value was 0.08 γ. With `O=C(OC1C2CC3CC(C2)CC1C3)[C@@H]1O[C@H]1C(=O)OC1C2CC3CC(C2)CC1C3` (relative stereo) [EP-37, di-2-adamantyl epoxysuccinate] the “ID50 (amount of inhibitor for 50% inhibition)” value was 0.22 γ. For `O=C(O)[C@@H]1O[C@H]1C(=O)OCc1ccco1` (relative stereo) [EP-78, 2-furanmethyl potassium epoxysuccinate], the “ID50 (amount of inhibitor for 50% inhibition)” value was 0.54 γ. `O=C(O)[C@@H]1O[C@H]1C(=O)OCc1cccc2ccccc12` (relative stereo) [EP-82, 1'-naphthylmethyl potassium epoxysuccinate] was tested, and the “ID50 (amount of inhibitor for 50% inhibition)” value was 0.34 γ. For `O=C(NCCCC[C@H](NC(=O)C1OC1C(=O)[O-])C(=O)OCc1ccccc1)OCc1ccccc1.[K+]` (stereo partly drawn) [EP-197, N^α -(3-carboxyoxirane-2-carbonyl)-N^ε -carbobenzoxy-L-lysine benzyl ester potassium salt], the “ID50 (amount of inhibitor for 50% inhibition)” value was 0.98 γ. For `O=C(OC1CCCC(Br)C1)C1OC1C(=O)OC1CCCC(Br)C1` (stereo not drawn) [EP-9, di-3'-cis-bromocyclohexyl epoxysuccinate], the “ID50 (amount of inhibitor for 50% inhibition)” value was 2.20 γ. In the case of `O=C(O)[C@H]1O[C@@H]1C(=O)OCc1ccc(Br)cc1` (relative stereo) [EP-114, p-bromobenzyl potassium epoxysuccinate], the “ID50 (amount of inhibitor for 50% inhibition)” value is reported as 0.26 γ. `CC1CCCC(C)C1OC(=O)C1OC1C(=O)O` (stereo not drawn) [EP-14, 2',6'-trans-dimethylcyclohexyl potassium epoxysuccinate] was tested, and the “ID50 (amount of inhibitor for 50% inhibition)” value was 0.10 γ. With `Cc1cccc2c(COC(=O)[C@@H]3O[C@H]3C(=O)OCc3ccc(C)c4c(C)cccc34)ccc(C)c12` (relative stereo) [EP-87, di-4',5'-dimethyl-1'-naphthylmethyl epoxysuccinate] the “ID50 (amount of inhibitor for 50% inhibition)” value was 1.58 γ. With `O=C(OC1CC(Cl)CCC1Br)C1OC1C(=O)OC1CC(Cl)CCC1Br` (stereo not drawn) [EP-11, di-2'-cis-bromo-5'-trans-chlorocyclohexyl epoxysuccinate] the “ID50 (amount of inhibitor for 50% inhibition)” value was 2.50 γ. In the case of `O=CNCCCC[C@H](NC(=O)C1OC1C(=O)OCc1ccccc1)C(=O)OCc1ccccc1` (stereo partly drawn) [EP-171], the “ID50 (amount of inhibitor for 50% inhibition)” value is reported as 5.80 γ. With `CCOC(=O)C1OC1C(=O)N[C@@H](CCCCN)C(=O)O` (stereo partly drawn) [EP-201, N-(3-ethoxycarbonyloxirane-2-carbonyl)-L-lysine] the “ID50 (amount of inhibitor for 50% inhibition)” value was 25.51 γ. For `COC(=O)[C@H](CCCNC(=N)N)NC(=O)C1OC1C(=O)O` (stereo partly drawn) [EP-200, N-(3-carboxyoxirane-2-carbonyl)-L-arginine methyl ester], the “ID50 (amount of inhibitor for 50% inhibition)” value was 0.88 γ. For `CC1CCC(OC(=O)C2OC2C(=O)O)C1` (stereo not drawn) [EP-32, 3'-trans-methylcyclopentyl potassium epoxysuccinate], the “ID50 (amount of inhibitor for 50% inhibition)” value was 0.09 γ. For `O=C(OCCC1CCCC1)[C@@H]1O[C@H]1C(=O)OCCC1CCCC1` (relative stereo) [EP-59, di-2-cyclopentaneethyl epoxysuccinate], the “ID50 (amount of inhibitor for 50% inhibition)” value was 0.18 γ.
